{"source": "patent US20200108043A1", "about": "“COMPOUNDS AND COMPOSITIONS FOR EXTENDING LIFESPAN OF A SUBJECT” (YALE UNIVERSITY, priority 2017, published 2020)", "key": {"S. cerevisiae": {"test_system": "S. cerevisiae", "assay_type": "cell-based", "protocol": "To obtain the single-cell level data for the age and generation-durations of replicatively aging mother cells, data reported in Liu, P., et al., Cell Rep. 634-644 (2015) was re-analyzed. The data was collected in the same media condition (CSM 2% glucose) as reported elsewhere herein. Cells were grown for ˜24 hours in CSM 2% glucose prior to loading to the microfluidic device. Once cells were loaded, media was swapped to provide CSM 2% glucose control media (untreated), media containing DMSO as a vehicle control (American Bio AB00435), media containing 10 μM terreic acid (Sigma SML0480), media containing 10 μM mycophenolic acid (Sigma M5255), or media containing another compound at the indicated concentration. An automated microscope was used to track […], and replicative lifespan was later determined by counting the number of daughters produced before death. In the case of compound validation, only newborn cells were included in the lifespan experiment. To compare the replicative lifespan of labeled and unlabeled cells, only cells that were present within the traps at the start of the experiment were included. For these experiments, cells were loaded to the microfluidic device at an increased rate of 100 μL/min to increase the number of trapped mother cells. Green fluorescent images were also taken at the start of the experiment to confirm that the cells were visibly labeled.\nDifferences in lifespan characteristics were assessed through Log-Rank test using MATLAB with a cut-off value of P=0.05. The script for Log-Rank test was downloaded from MATLAB. Differences in proteasome activity were assessed using the unpaired, two-tailed, parametric t-test function of the GraphPad Prism software.\nThe Longevity Placement Test (LPT) was designed as a mutually exclusive, collectively exhaustive test to determine the relationship of a longevity intervention to a known genetic regulator of lifespan. For a given intervention that extends lifespan, any of three possible relationships may exist relative to a known genetic regulator of lifespan. (1) The intervention may act to extend lifespan independently from the known regulator. (2) The […] may act downstream from the known regulator, converging on a single component of the known regulator's lifespan pathway. (3) The intervention may act upstream from or upon the known regulator, ultimately modulating lifespan through the genetic regulator.\nIn Step 1 of the LPT, the longevity intervention is applied to a strain in which a genetic regulator of lifespan is deleted. In the event that lifespan extension from the longevity intervention is observed in this background, only possibilities (1) and (2) above remain valid (FIG. 7B). If no lifespan extension is observed, then possibilities (2) and (3) remain valid. Possibility (2) cannot be ruled out in this step, since non-saturating action by the genetic regulator could leave room for lifespan extension by the longevity intervention, while saturating action would preclude it.\nIn Step 2 of the LPT, an epistatic agent, which prevents lifespan extension from the longevity agent, is applied to a strain in which some upstream member of the genetic regulator's lifespan pathway has been modified to extend lifespan. This step differentiates possibility (2) from the remaining possibility after Step 1. In the event that lifespan extension from the genetic regulator's pathway is suppressed by the epistatic agent, this determines that possibility (2) is correct. In the event that no epistasis is observed, the remaining possibility, (1) or (3), is correct (FIG. 7C)."}, "C. elegans": {"test_system": "C. elegans", "assay": "Roundworm (C. elegans) lifespan extension", "assay_type": "in vivo, Caenorhabditis elegans", "conditions": "10 μM in NGM plates, treated for duration of lifespan, vs control", "protocol": "Synchronized animals were obtained using the egg-laying method, allowing young […] eggs for 4 hours on bacteria-seeded plates. For each treatment group, 120 synchronized day-1 adults were used. All experiments were carried out at 20° C. Treatment groups were blinded. Nematode growth media (NGM) plates were made for each treatment group: Negative control (DMSO), Mycophenolic Acid (10 μM in DMSO), and Terreic Acid (10 μM in DMSO). The compounds were added to NGM media before pouring the plates. The plates were then dried overnight before moving them to 4° C. to prevent degradation of the compounds. Plates were seeded with 100 μL of 10× concentrated OP50 E. coli, and dried overnight at room temperature. Plates were UV treated with a UVP CL-1000 Ultraviolet Crosslinker, run twice on the energy setting ‘9999’ for about 5 minutes each run. Worms were transferred to new plates every 2-4 days. Viability was scored every day, with death determined by lack of response to a platinum wire. Missing worms, or those that died due to internal hatching were censored."}, "proteasome": {"molecular_target": "T1, proteasome (Saccharomyces cerevisiae, UniProt P30656)", "T1 construct": "with 50 μg of total protein in 200 μL of lysis buffer; endogenous in cells; host or cells: S. cerevisiae BY4741 wild-type or ΔUBR2 cells, glass-bead lysate (total protein extract)", "assay": "Proteasome assay with fluorogenic substrate Suc-LLVY-AMC on yeast protein extracts", "assay_type": "biochemical", "conditions": "wild-type (BY4741) cells, presence vs absence of MPA", "protocol": "For protein extraction, 50 mL of cells were grown for 18 hours to an OD600 of approximately 0.8, then transferred to a 50 mL conical tube and centrifuged at 4255×g for 5 minutes at room temperature. The supernatant was discarded, and the cells were re-suspended in 150 μL of cold lysis buffer (50 mM Tris-HCl, pH 7.5, 0.5 mM EDTA, 5 mM MgCl2, with complete ULTRA mini protease inhibitor tablets, EDTA free) and transferred to a 1.5 mL tube. A ¼ volume of 500-750 μm glass beads (Acros Organics 397641000) was added to each tube. For 10 rounds, the tubes were chilled in ice water for 1 minute, then vortexed at maximum speed for 30 seconds to physically rupture the cells, and returned to the ice water. Samples were then spun for 3 minutes at 2500×g and 4° C., and the supernatant was transferred to a fresh tube. The solution was further clarified by centrifugation at 8000×g for 10 minutes at 4° C., and the supernatant was transferred to a fresh tube. Protein concentration was measured using a Nanodrop measuring the absorbance of the sample at 280 nm.\nThe proteasome assay used was described in Kruegel, et al. PLoS Genet. 7, (2011). The assay was performed in a 96-well clear-bottom plate (Costar 3603) with 50 μg of total protein in 200 μL of lysis buffer. The fluorogenic proteasome substrate Suc-LLVY-AMC (Bachem 1-1395) was added to a final concentration of 100 μM. Fluorescence intensity with an excitation wavelength of 380 nm and an emission wavelength of 460 nm was recorded at 5-minute intervals using a Neo2 plate reader (BioTek) set to mix constantly and maintain 30° C. Negative control reactions were performed in the presence of 50 μM MG132 (Sigma 474787), a proteasome inhibitor."}}, "note": "Entries after “also recorded” stand apart in the source; their conditions may differ.", "data": [{"smiles": "COc1c(C)c2c(c(O)c1C/C=C(\\C)CCC(=O)O)C(=O)OC2", "note": "[mycophenolic acid]", "values": [{"measurement": "lifespan extension with treatment for only part of the lifespan", "setting": "S. cerevisiae; 10 μM MPA only first 24 hours or only after first 24 hours, compared to whole-lifespan treatment", "value": "reduced lifespan extension compared to whole-lifespan treatment"}, {"measurement": "lifespan extension with pulse treatment", "setting": "S. cerevisiae; 10 μM MPA, 6-hour pulse between 24th and 30th hour", "value": "little to no lifespan extension"}, {"measurement": "extension of mean RLS", "setting": "S. cerevisiae; 10 μM compound, wild-type haploid cells, Replicator device", "value": 20, "unit": "%"}, {"measurement": "lifespan in ΔSIR2ΔFOB1 background (LPT step 1)", "setting": "S. cerevisiae; absence of SIR2, ΔSIR2ΔFOB1 background", "value": "able to extend the lifespan"}, {"measurement": "lifespan in ΔHXK2 strain (LPT step 1)", "setting": "S. cerevisiae; long-lived ΔHXK2 strain", "value": "further extended lifespan"}, {"measurement": "lifespan in ΔTOR1 strain (LPT step 1)", "setting": "S. cerevisiae; long-lived ΔTOR1 strain", "value": "further extended lifespan"}, {"measurement": "replicative lifespan (RLS) with and without supplemental guanine", "setting": "S. cerevisiae; wild-type haploid yeast BY4741, MPA without supplemental guanine vs control and guanine supplemented", "value": "extended longevity"}, {"measurement": "RLS in ΔPRE9 strain", "setting": "S. cerevisiae; ΔPRE9 strain", "value": "extends RLS"}, {"measurement": "RLS in ΔUBR2 strain (LPT step 1)", "setting": "S. cerevisiae; ΔUBR2 strain", "value": "moderately, but not significantly, extended RLS"}, {"measurement": "lifespan of C. elegans", "setting": "C. elegans", "value": "measurable extension of lifespan; also recorded: statistically significant lifespan extension"}, {"measurement": "proteasome activity in wild-type cells", "setting": "proteasome", "value": "did not activate the proteasome"}]}]}
